Article PMC3929971 (Chemistry (Weinheim an der Bergstrasse, Germany), 2013)

Target: T1, Mtb MraY (phospho-MurNAc-pentapeptide translocase, translocase I) (Mycobacterium tuberculosis, UniProt P9WMW7)
T1 sequence (P9WMW7 1-359): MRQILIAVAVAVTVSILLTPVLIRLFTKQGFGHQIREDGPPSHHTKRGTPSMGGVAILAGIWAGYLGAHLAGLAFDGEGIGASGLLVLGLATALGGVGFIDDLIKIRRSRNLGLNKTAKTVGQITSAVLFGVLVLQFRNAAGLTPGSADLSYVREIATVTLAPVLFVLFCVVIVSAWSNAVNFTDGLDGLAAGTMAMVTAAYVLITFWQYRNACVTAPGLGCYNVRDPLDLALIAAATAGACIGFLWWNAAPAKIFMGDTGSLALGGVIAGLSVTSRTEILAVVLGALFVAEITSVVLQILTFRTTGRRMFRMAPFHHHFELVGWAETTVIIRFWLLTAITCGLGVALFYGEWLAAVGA
Assay: MraY enzyme inhibition
Type: biochemical

## CO[C@H]1[C@@H](O)[C@H](n2ccc(=O)[nH]c2=O)O[C@@H]1[C@@H](O[C@H]1OC(C(=O)N[C@H]2CCCCNC2=O)=C[C@H](O)[C@@H]1O)C(N)=O [compound 1, Capuramycin]
  IC50: 18 nM
